Drawing on PubChem BioAssay (NCI), this text covers GI50 and TGI for 14 compounds.

Common to all, as to test: inhibition of tumour cell growth, NCI panel, 48 h
Assay [1] concerns DU-145 prostate.
The subject of assay [2] is HS 578T breast.
The test system of assay [3] is IGROV1 ovarian.
Assay [4] relates to NCI-H23 lung.
In assay [5] the test system is NCI-H460 lung.
For assay [6], the system named is RPMI-8226 leukemia.
The test system of assay [7] is SR leukemia.
The subject of assay [8] is TK-10 renal.

The structures appear in SMILES notation. Values joined by “and” are separate entries in the source; they are usually repeats but may differ in a detail not shown here. Identical values can stand only once.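 Protocol summary: plate cells (96-well), add compound at 5 concentrations, incubate 48 h, interpolate endpoints linearly. Here, GI50 denotes the concentration required for 50% inhibition of growth. Definition used: TGI = concentration required for complete inhibition of growth.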

As for `Nc1ncnc2c1c(-c1cccc(OCc3ccccc3)c1)cn2C1CC(CN2CCCC2)C1` (configuration not stated), the GI50 in assay [1] is 4 µM; in assay [2], 1.6 µM; in assay [3], 2.92 µM; in assay [4], 2.91 µM; in assay [5] it was 1.66 µM; in assay [6] it was 1.94 µM. Besides, the GI50 in assay [7] was 2400 nM; in assay [8], 1.84 µM. The TGI in assay [1] worked out at 16.9 µM; in assay [2], 4.19 µM; in assay [3] it was 7.5 µM; in assay [4] it was 16 µM; in assay [5], 7.65 µM; in assay [6] it was 5.4 µM. Also, the figures for the TGI in assay [7] and in assay [8] were 11.2 µM and 5.05 µM, respectively.
Turning to `O=C1Nc2cc(Cl)ccc2Oc2cc(Oc3ccccc3)ccc21`, the GI50 is 6.52 µM in assay [1]; 3.31 µM in assay [2]; 5.42 µM in assay [3]; 3.78 µM in assay [4]; 2.91 µM in assay [5]; 5.35 µM in assay [6]. In addition, the GI50 in assay [7] is 2890 nM; in assay [8], 12 µM. The TGI in assay [1] was 26.6 µM; in assay [2], 27.5 µM; in assay [3], 29.9 µM; in assay [4], 29.9 µM; in assay [5] it was 11.7 µM; in assay [6], greater than 100 µM. Besides, the TGI in assay [7] was 29.5 µM; in assay [8], 47.3 µM.
For the compound `O=C1Nc2ccccc2C1(c1ccc(O)c(F)c1)c1ccc(O)c(F)c1`, the GI50 is 11.9 µM in assay [1]; 0.3 µM in assay [2]; 3.19 µM in assay [3]; 0.532 µM in assay [4]; 19 µM in assay [5]; 15.7 µM in assay [6]. Besides, the values for the GI50 in assay [7] and in assay [8] were 3830 nM and 0.409 µM, respectively. Besides, the TGI in assay [1] came out at 42.7 µM; in assay [2] it was 4.44 µM; in assay [3] it was 50.6 µM; in assay [4], 25.2 µM; in assay [5], 47.8 µM; in assay [6], 52.6 µM. Further, the TGI in assay [7] was greater than 52.3 µM; in assay [8] it was 11.3 µM.
As for `O=S(=O)(O)c1ccc(Cl)cc1.[Cd]`, the GI50 was 67.3 µM in assay [1]; 47 µM in assay [2]; 20.9 µM in assay [3]; 23.2 µM in assay [4]; 4.61 µM in assay [5]; 32.1 µM in assay [6]. The results for the GI50 in assay [7] and in assay [8] were 22800 nM and greater than 100 µM, respectively. The TGI in assay [1] is greater than 100 µM; in assay [2] it was greater than 100 µM; in assay [3] it was 43.2 µM; in assay [4], 82.3 µM; in assay [5], 25.3 µM; in assay [6] it was greater than 100 µM. The TGI in assay [7] and in assay [8] was greater than 100 µM throughout.
As to `COc1ccc(-c2cc(-c3ccc(O)cc3)nc3nc(=S)[nH]c(N)c23)cc1`, the GI50 was 12.1 µM in assay [1]; 20.6 µM in assay [2]; 18.6 µM in assay [3]; 25 µM in assay [4]; 15.9 µM in assay [5]; 10.6 µM in assay [6]. Besides, the GI50 in assay [7] is 6940 nM; in assay [8], 32.2 µM. In addition, the TGI came to 35.3 µM in assay [1]; 48.4 µM in assay [2]; 73.8 µM in assay [3]; 50.1 µM in assay [4]; 36.9 µM in assay [5]; 25.7 µM in assay [6]. In addition, the results for the TGI in assay [7] and in assay [8] were greater than 100 µM and 92.9 µM, respectively.
In the case of `COc1ccc(-c2cn(-c3ccc(Cl)cc3)c(=S)[nH]2)cc1OC`, the GI50 was 14 µM in assay [1]; 19.2 µM in assay [2]; 7.08 µM in assay [3]; greater than 100 µM in assay [4]; 3.92 µM in assay [5]; 4.43 µM in assay [6]. Further, the GI50 was 2910 nM in assay [7] and 12.1 µM in assay [8]. Besides, the TGI in assay [1] was greater than 100 µM; in assay [2], greater than 100 µM; in assay [3], greater than 100 µM; in assay [4], greater than 100 µM; in assay [5], greater than 100 µM; in assay [6], 92.3 µM. Further, the TGI in assay [7] and in assay [8] was greater than 100 µM throughout.
For the compound `Fc1ccc(-c2ncn(C3CCNCC3)c2-c2ccnc(Oc3ccccc3)n2)cc1`, the GI50 in assay [1] was greater than 25 µM; in assay [2], greater than 13.1 µM; in assay [3], 13.5 µM; in assay [4] it was greater than 25 µM; in assay [5], 16.1 µM; in assay [6], greater than 23.9 µM. In addition, the GI50 was 9170 nM in assay [7] and 21.2 µM in assay [8]. Also, the TGI in assay [1], in assay [2], in assay [3], in assay [4], in assay [5] and in assay [6] was greater than 25 µM in each case. For the same compound, the TGI in assay [7] is greater than 20.1 µM; in assay [8] it was greater than 25 µM.
As for `Cn1cc(C2=C(c3c4n(c5ccccc35)CC(CN)C4)C(=O)NC2=O)c2ccccc21` (configuration not stated), the GI50 in assay [1] was 4.02 µM; in assay [2], 1.03 µM; in assay [3], 3.52 µM; in assay [4] it was 4.38 µM; in assay [5] it was 3.79 µM; in assay [6] it was 4.57 µM. Also, the GI50 in assay [7] was 1740 nM; in assay [8], 2.94 µM. Moreover, the TGI in assay [1] came out at 9.53 µM; in assay [2] it was 5.6 µM; in assay [3], 9.08 µM; in assay [4], 11.1 µM; in assay [5], 7.8 µM; in assay [6], 11.1 µM. Further, the TGI turned out to be 13.8 µM in assay [7] and 8.07 µM in assay [8].
For `O=C(CSc1nc2ccc([N+](=O)[O-])cc2[nH]1)Nc1cccc(Cl)c1`, the GI50 is 3.68 µM in assay [1]; 2.95 µM in assay [2]; 3.1 µM in assay [3]; 2.26 µM in assay [4]; 3.22 µM in assay [5]; 1.66 µM in assay [6]. Besides, the results for the GI50 in assay [7] and in assay [8] were 3340 nM and 3.31 µM, respectively. Also, the TGI is 18.4 µM in assay [1]; 19.4 µM in assay [2]; 18.3 µM in assay [3]; 9.3 µM in assay [4]; 13.1 µM in assay [5]; greater than 27.8 µM in assay [6]. In addition, the TGI in assay [7] was greater than 45.7 µM; in assay [8], 11.8 µM.
Consider `COc1ccc2c(CC(=O)O)cc(=O)oc2c1`, for which the TGI in assay [1], in assay [2], in assay [3], in assay [4], in assay [5] and in assay [6] was greater than 100 µM in each case. Also, the TGI in assay [7] and in assay [8] was greater than 100 µM in each case.
Consider `CS(=O)(=O)N1CCN(Cc2cc3nc(-c4cccc5[nH]ncc45)nc(N4CCOCC4)c3s2)CC1`, for which the GI50 in assay [1] was 0.61 µM and 0.427 µM; in assay [2] it was 0.134 µM and 0.148 µM; in assay [3], 0.0571 µM and 0.0389 µM; in assay [4], 1.37 µM and 0.603 µM; in assay [5] it was 0.357 µM and 0.311 µM; in assay [6] it was 2 µM and 1.94 µM. Moreover, the GI50 in assay [7] was 2460 nM and 2020 nM; in assay [8] it was 0.11 µM and 0.0949 µM. Besides, the TGI in assay [1] is greater than 100 µM; in assay [2] it was 1.44 µM and 1.11 µM; in assay [3], 0.425 µM and 0.301 µM; in assay [4] it was greater than 100 µM; in assay [5] it was greater than 100 µM; in assay [6], greater than 22.2 µM. The TGI in assay [7] is greater than 100 µM; in assay [8], 0.789 µM and 0.74 µM.
Consider `O=C(c1ccccn1)c1nnn2ccccc12`, for which the TGI in assay [1], in assay [2], in assay [3], in assay [4], in assay [5] and in assay [6] was greater than 100 µM throughout. For the same compound, the TGI in assay [7] and in assay [8] was greater than 100 µM each time.
For the compound `CC(C)c1ccc2c(N=Nc3ccc(S(N)(=O)=O)cc3)c(O)[nH]c2c1`, the GI50 in assay [1] is 12.5 µM; in assay [2] it was 8.07 µM; in assay [3] it was greater than 15.5 µM; in assay [4], 11.1 µM; in assay [5], 5.72 µM; in assay [6], greater than 25 µM. The GI50 in assay [7] was greater than 16200 nM; in assay [8], greater than 12.1 µM. Also, the TGI in assay [1] is greater than 25 µM; in assay [2], greater than 25 µM; in assay [3] it was greater than 25 µM; in assay [4] it was greater than 25 µM; in assay [5] it was greater than 16.4 µM; in assay [6], greater than 25 µM. Besides, the TGI was greater than 25 µM in assay [7] and greater than 24 µM in assay [8].
As to `COc1ccc(/C=C2\N=C(c3ccccc3)N(c3cc(C(F)(F)F)ccc3Cl)C2=O)cc1OC`, the GI50 in assay [1] was 43.1 µM; in assay [2], 24.4 µM; in assay [3], 28.4 µM; in assay [4], 90.6 µM; in assay [5], 43 µM; in assay [6] it was 25.8 µM. In assay [8], the GI50 is 93.6 µM. Moreover, the TGI in assay [1] is greater than 100 µM; in assay [2] it was 78.4 µM; in assay [3], greater than 100 µM; in assay [4] it was greater than 100 µM; in assay [5], greater than 100 µM; in assay [6], 80.8 µM. Also, the TGI was 0.0635 µM in assay [7] and greater than 100 µM in assay [8].
